Experimental data published in patent US7317028B2, “Cell differentiation inducer” (Schering Aktiengesellschaft, priority 1996, dated 2008).
Counter-ions that a name gives are not always drawn.

Test system: A2780 cells
Experiment: Test for induction of differentiation in A2780 cells (ALP activity, ALPmin)
Format: cell-based, human
Settings: not given
Protocol: Increase of alkaline phosphatase (ALP) activity is known as an indicator for differentiation of human colon cancer cells. […] Thus, differentiation inducing action was evaluated using ALP activity as an indicator.
To each well of a 96-well plate was placed 0.1 mL of A2780 cells (15,000 cells/well) and the next day was added 0.1 mL of a sequential dilute of test solution with the medium. […] The reaction was quenched with 0.05 mL/well of 3N sodium hydroxide aq. For each well, an absorbance at 405 nm was measured to determine the minimum concentration of the drug inducing increase of ALP activity (ALPmin).

Compound	minimal effective concentration [µM]
CN(Cc1ccc(C(=O)Nc2ccccc2N)cc1)C(=O)COc1cccnc1 [Example 44, N-(2-aminophenyl)-4-[N-methyl-N-(pyridin-3-yl)oxyacetyl]aminomethylbenzamide]	0.01

Same assay, conditions: A2780 cells, 3 days incubation; minimum concentration of the drug inducing increase of ALP activity

Compound	minimal effective concentration [µM]
O=C(NCc1ccc(C(=O)Nc2ccccc2O)cc1)NCc1cccnc1 [Example 95, N-(2-hydroxyphenyl)-4-[N′-(pyridin-3-yl)methylureidomethyl]benzamide]	3
Nc1ccccc1NC(=O)c1ccc(CNC(=O)Nc2cccnc2)cc1 [Example 91, N-(2-aminophenyl)-4-[N′-(pyridin-3-yl)ureidomethyl]benzamide]	0.1
Nc1ccc(F)cc1NC(=O)c1ccc(CNC(=O)NCc2cccnc2)cc1 [Example 94, N-(2-amino-5-fluorophenyl)-4-[N′-(pyridin-3-yl)methylureidomethyl]benzamide]	3
Nc1ccccc1NC(=O)c1ccc(CNC(=O)OC2CN3CCC2CC3)cc1 (stereo not drawn) [Example 72, N-(2-aminophenyl)-4-[N-(quinuclidin-3-yl)oxycarbonylaminomethyl]benzamide]	10
Nc1ccccc1NC(=O)c1ccc(N2CC(COc3ccc([N+](=O)[O-])cc3)OC2=O)cc1 (stereo not drawn) [Example 137, N-(2-aminophenyl)-4-[5-(4-nitrophenoxy)methyl-1,3-oxazolin-2-on-3-yl-yl]benzamide]	1
Cc1ncsc1CCOC(=O)NCc1ccc(C(=O)Nc2ccccc2N)cc1 [Example 64, N-(2-aminophenyl)-4-C[N-[2-(4-methylthiazol-5-yl)ethoxycarbonyl]aminomethyl]benzamide]	3
Nc1ccccc1NC(=O)c1ccc(CNC(=O)NCc2cccnc2)cc1 [Example 89, N-(2-aminophenyl)-4-[N′-(pyridin-3-ylmethyl)ureidomethyl]benzamide]	0.3
Nc1ccccc1NC(=O)c1ccc(CN2CCN(Cc3cccnc3)C2=O)cc1 [Example 145, N-(2-aminophenyl)-4-[3-(pyridin-3-yl)methylimidazolin-2-on-1-yl]methylbenzamide]	3
Nc1cccc(NC(=S)NCc2ccc(C(=O)Nc3ccccc3N)cc2)c1 [Example 92, N-(2-aminophenyl)-4-[N′-(3-aminophenyl)thioureidomethyl]benzamide]	3
Nc1ccccc1NC(=O)c1cc2cc(NC(=O)CCc3cccnc3)ccc2o1 [Example 128, N-(2-aminophenyl)-5-[3-(pyridin-3-yl)propionamide]benzofuran-2-carboxyamide]	0.1

Same assay, conditions: Homo sapiens, 72 h; A2780 cells, 3 days incubation; minimum concentration of the drug inducing increase of ALP activity

Compound	minimal effective concentration [µM]
Nc1ccccc1NC(=O)c1ccc(-n2cc(COc3ccccn3)oc2=O)cc1 [Example 143, N-(2-aminophenyl)-4-[5-(pyridin-2-yl)oxymethyl-1,3-oxazolin-2-on-3-yl]benzamide]	3
O=C(Nc1ccccc1O)c1ccc(CN(Cc2cccnc2)C(=O)OCc2cccnc2)cc1 [Example 81, N-(2-hydroxyphenyl)-4-[N-(pyridin-3-yl)methyl-N-(pyridin-3-yl)methoxycarbonylaminomethyl]benzamide]	10
Nc1ccccc1NC(=O)c1ccc(CN(Cc2cccnc2)C(=O)OCc2cccnc2)cc1 [Example 79, N-(2-aminophenyl)-4-[N-(pyridin-3-yl)methyl-N-(pyridin-3-yl)methoxycarbonylaminomethyl]benzamide]	0.1
Nc1ccccc1NC(=O)c1ccc(CNC(=O)c2c[nH]cn2)cc1 [Example 27, N-(2-aminophenyl)-4-[N-(imidazol-4-yl)carbonylaminomethyl]benzamide]	10
Nc1ccccc1NC(=O)c1ccc(-n2cc(COc3ccccc3)oc2=O)cc1 [Example 136, N-(2-aminophenyl)-4-(5-phenoxymethyl-1,3-oxazolin-2-on-3-yl)benzamide]	1
CN1CCN(COC(=O)NCc2ccc(C(=O)Nc3ccccc3N)cc2)CC1 [Example 66, N-(2-aminophenyl)-4-[N-(4-methylpiperazin-1-yl)methoxycarbonylaminomethyl]benzamide]	3
CC(=O)N(CCc1ccc(C(=O)Nc2ccccc2N)cc1)c1cccnc1 [Example 96, N-(2-aminophenyl)-4-[2-[N-(pyridin-3-yl)-acetylamino]ethyl]benzamide]	10
Nc1ccccc1NC(=O)c1ccc(CNC(=O)OCC2CCOC2)cc1 (stereo not drawn) [Example 67, N-(2-aminophenyl)-4-[N-(tetrahydrofuran-3-yl)methoxycarbonylaminomethyl]benzamide]	3
Nc1ccccc1NC(=O)c1ccc(NC(=O)Cc2ccccn2)cc1 [Example 110, N-(2-aminophenyl)-4-[(pyridin-2-yl)acetylamino]benzamide dihydrochloride]	3
Nc1ccccc1NC(=O)c1ccc(CNC(=O)CNc2cccnc2)cc1 [Example 35, N-(2-aminophenyl)-4-[N-[N-(pyridin-3-yl)aminoacetyl]aminomethyl]benzamide]	0.3
Nc1ccc(F)cc1NC(=O)c1ccc(CNC(=O)OCc2cccnc2)cc1 [Example 70, N-(2-amino-5-fluorophenyl)-4-[N-(pyridin-3-yl)methoxycarbonylaminomethyl]benzamide]	0.1
Nc1ccccc1NC(=O)c1ccc(NC(=O)Cc2ccc(Cl)cc2)cc1 [Example 102, N-(2-aminophenyl)-4-[(4-chlorophenylacetyl)amino]benzamide]	3
Nc1ccccc1NC(=O)c1ccc(COC(=O)NCCCn2ccnc2)cc1 [Example 99, N-(2-aminophenyl)-4-[3-(imidazol-1-yl)propylaminocarbonyloxymethyl]benzamide]	3
Nc1ccccc1NC(=O)c1ccc(CN(CCCc2cccnc2)C(=O)OCc2cccnc2)cc1 [Example 80, N-(2-aminophenyl)-4-[N-[3-(Pyridin-3-yl)propyl]-N-(pyridin-3-yl)methoxycarbonylaminomethyl]benzamide]	0.1
Nc1ccccc1NC(=O)c1ccc(-n2cc(COc3cccnc3)oc2=O)cc1 [Example 139, N-(2-aminophenyl)-4-[5-(pyridin-3-yl)oxymethyl-1,3 oxazolin-2-on-3-yl]benzamide]	0.3
Nc1ccccc1NC(=O)c1ccc(NC(=O)CCc2cccnc2)cc1Cl [Example 113, N-(2-aminophenyl)-2-chloro-4-[3-(pyridin-3-yl)propanoylamino]benzamide]	0.3
Nc1cccc(NC(=O)c2ccc(CNC(=O)OCc3cccnc3)cc2)c1 [Comp. Ex. 1, N-(3-aminophenyl)-4-[N-(pyridin-3-yl)methoxycarbonylaminomethyl]benzamide, reference compound]	> 100
COc1ccc(CC(=O)Nc2ccc(C(=O)Nc3ccccc3N)cc2)cc1 [Example 107, N-(2-aminophenyl)-4-[(4-methoxyphenylacetyl)amino]benzamide]	1
O=C(COc1cccnc1)NCc1ccc(C(=O)Nc2ccccc2O)cc1 [Example 41, N-(2-hydroxyphenyl)-4-[N-(pyridin-3-yl)oxyacetylaminomethyl]benzamide]	0.3
